Experimental findings from paper PMC4113814, “Bioactive Cembrane Derivatives from the Indian Ocean Soft Coral, Sinularia kavarattiensis” (Marine Drugs, 2014) are described below.

≈ marks a conversion by molar mass, not a printed value. Where only a bound is given, the exact number is not on record here.

For one series, the system named is IL-6. Nature of the series: IL-6 release in supernatants of LPS-treated primary microglial cells (ELISA). It counts as cell-based, Wistar rats. As to conditions: 72 h; for IL-6 release: LPS-treated; for IC50: Rattus norvegicus, inhibition of LPS-induced cytokine release, read-out: IL-6 IC50. The procedure:
(§1) Primary microglial cell cultures were prepared from brains of newborn Wistar rats. Ethics approval for the experiments was granted by the EBIOTEC Review Board (Valter Lombardi, Iván Carrera and Lucía Fernández-Novoa; Project Identification Code: Sinularia Project October 2013; approved 30 October 2013). The neocortex of one-day-old postnatal rats was aseptically dissected out, and the meninges and blood vessels were carefully removed. Following cutting in a medium containing 20% horse serum, the suspension was filtered through a […] and transferred as a single cell suspension to culture dishes, using 5.0 mL of medium per dish. The cultures were incubated at 37 °C in an atmosphere containing 5% CO2. The culture medium consisted of Minimum Essential Medium Eagle, supplemented with L-glutamine, amino acids, vitamins, penicillin, gentamicin, sodium bicarbonate and 20% heat-inactivated horse serum. The medium was changed twice a week. After 1 week, the concentration of horse serum was reduced to 10%. After sixteen days in culture, cells were treated with 1 μg/mL of lipopolysaccharide (LPS). […] Positive controls were treated only with LPS, while negative controls were treated with complete medium. After 72 h of incubation, cells were counted, and 2.5 mL of the supernatants were collected from each well and frozen at −40 °C for cytokine analyses. All experiments were carried out twice.
(§2) The supernatants obtained from cell cultures were analyzed for TNF-α, IL-1β, IL-4, IL-6, IL-8, IL-10 and IL-18 using commercially available ELISA kits following the manufacturers’ instructions. All samples were assayed in duplicate, and equivocal results were repeated. The cytokine concentration was calculated from a standard curve of the corresponding recombinant cytokine.
(§3) The cytotoxicity of the compounds was measured by the colorimetric methyl thiazol tetrazolium (MTT) assay and scored as a percentage of the absorbance reduction of treated cultures versus untreated control cultures. Primary microglial cell cultures were seeded into 96-well microplates at 10^4 cells per well and allowed to grow for 24 h. […] The compounds were serially diluted in complete culture medium with two-fold dilutions (100, 50, 25, 12.5, 6.25, 3.12 and 1.56 μg/mL for in vitro cytotoxicity; 12.5, 6.25, 3.12, 1.56, 0.78 and 0.39 μg/mL for cytokine release). Different concentrations of the compounds were added to each well, and Tamoxifen was used as a positive control, with concentrations ranging from 50 to 1.56 μg/mL. Plates were incubated at 37 °C for 72 h under 5% CO2 atmosphere. Then, the 50 μL of MTT-PBS solution in culture medium were added to each well. The plates were further incubated for 4 h under the same conditions. The medium was then removed and replaced with 200 μL of DMSO to solubilize the MTT formazan product. The solutions were shaken for 20 min, and the absorbance was measured at 570 nm. […] Each value represents the mean of triplicate determinations. The IC50 values were calculated from the compound concentration-response curves.
Background: An ELISA detects its analyte on a solid surface through an enzyme-linked reagent.

The test system of another series is IL-18. The experiment in a line: IL-18 release in supernatants of LPS-treated primary microglial cells (ELISA). It counts as cell-based, Wistar rats. As to conditions: 72 h; for IL-18 release: LPS-treated; for IC50: Rattus norvegicus, inhibition of LPS-induced cytokine release, read-out: IL-18 IC50. Here is the method:
as §1, §2
as §3, with “The compounds were serially diluted in complete culture medium with two-fold dilutions (100, 50, 25, 12.5, 6.25, 3.12 and 1.56 μg/mL for in vitro cytotoxicity; 12.5, 6.25, 3.12, 1.56, 0.78 and 0.39 μg/mL for cytokine release).” left out

A short description of series [1]: MTT cytotoxicity assay on primary microglial cell cultures. As to conditions: Wistar, rat, mean of triplicate. It counts as cell-based, Wistar rats. The procedure: Primary microglial cell cultures were prepared from brains of newborn Wistar rats. Ethics approval for the experiments was granted by the EBIOTEC Review Board (Valter Lombardi, Iván Carrera and Lucía Fernández-Novoa; Project Identification Code: Sinularia Project October 2013; approved 30 October 2013). The neocortex of one-day-old postnatal rats was aseptically dissected out, and the meninges and blood vessels were carefully removed. Following cutting in a medium containing 20% horse serum, the suspension was filtered through a […] and transferred as a single cell suspension to culture dishes, using 5.0 mL of medium per dish. The cultures were incubated at 37 °C in an atmosphere containing 5% CO2. The culture medium consisted of Minimum Essential Medium Eagle, supplemented with L-glutamine, amino acids, vitamins, penicillin, gentamicin, sodium bicarbonate and 20% heat-inactivated horse serum. The medium was changed twice a week. After 1 week, the concentration of horse serum was reduced to 10%. After sixteen days in culture, cells were treated with 1 μg/mL of lipopolysaccharide (LPS). After six hours, different concentrations (1.0 μg/mL, 2.5 μg/mL and 5.0 μg/mL) of Compounds 1–4 and 6 were added to each well, and plates were incubated for 72 h at 37 °C in an atmosphere containing 5% CO2. Positive controls were treated only with LPS, while negative controls were treated with complete medium. After 72 h of incubation, cells were counted, and 2.5 mL of the supernatants were collected from each well and frozen at −40 °C for cytokine analyses. All experiments were carried out twice.
The cytotoxicity of the compounds was measured by the colorimetric methyl thiazol tetrazolium (MTT) assay and scored as a percentage of the absorbance reduction of treated cultures versus untreated control cultures. Primary microglial cell cultures were seeded into 96-well microplates at 10^4 cells per well and allowed to grow for 24 h. The initial concentration of Compounds 1–4 and 6 was 100 μg/mL in DMSO. The compounds were serially diluted in complete culture medium with two-fold dilutions (100, 50, 25, 12.5, 6.25, 3.12 and 1.56 μg/mL for in vitro cytotoxicity; 12.5, 6.25, 3.12, 1.56, 0.78 and 0.39 μg/mL for cytokine release). Different concentrations of the compounds were added to each well, and Tamoxifen was used as a positive control, with concentrations ranging from 50 to 1.56 μg/mL. Plates were incubated at 37 °C for 72 h under 5% CO2 atmosphere. Then, the 50 μL of MTT-PBS solution in culture medium were added to each well. The plates were further incubated for 4 h under the same conditions. The medium was then removed and replaced with 200 μL of DMSO to solubilize the MTT formazan product. The solutions were shaken for 20 min, and the absorbance was measured at 570 nm. […] Each value represents the mean of triplicate determinations. The IC50 values were calculated from the compound concentration-response curves.
A general note: Formazan colour is commonly taken as a measure of viable cells.

In another series the test system is BHK-CHIKV-NCT cells. The experiment in a line: Cell-IQ live cell imaging, cytotoxicity by cell classification (viable cells). The following applies: 100 μM, 48 h, 3000 cells/well.

As for `C=C(C)[C@@H]1C/C=C2\C(=O)O[C@@H](C[C@]3(C)CC(=O)[C@H](CC(=O)C1)O3)[C@@H]2O` [Compound 1, 5-epi-sinuleptolide], the IL-6 release with IL-6 (C1: 1.0 μg/mL) turned out to be 14.2 ± 1.8 pg/mL; with IL-6 (C2: 2.5 μg/mL) it was 11.7 ± 1.2 pg/mL; in the series with IL-6 (C3: 5.0 μg/mL), 13.5 ± 1.4 pg/mL. The IC50 in the series on IL-6 and in the series on IL-18 was over 12.5 µg/mL each time. Further, the IL-18 release amounted to 319 ± 8.1 pg/mL with IL-18 (C1: 1.0 μg/mL), 318 ± 7.5 pg/mL in the series on IL-18 (C2: 2.5 μg/mL) and 315 ± 8.1 pg/mL with IL-18 (C3: 5.0 μg/mL). The compound further had a concentration for half-maximal inhibition (IC50) at 72 h in series [1] of over 100 µg/mL. In addition, the “decrease in the amount of viable cells (living or dividing)” value in the series with BHK-CHIKV-NCT cells is listed as over 80%.
Take `C=C(C)C1CCC23OC2C(CC2(C)CC(=O)C(CC(=O)C1)O2)OC3=O` (centres unmarked) [Compound 3, scabrolide D]: the IL-6 release is reported as 12.9 ± 1.1 pg/mL with IL-6 (C1: 1.0 μg/mL), 11.5 ± 1.3 pg/mL in the series with IL-6 (C2: 2.5 μg/mL) and 13.2 ± 1.2 pg/mL in the series on IL-6 (C3: 5.0 μg/mL). The IC50 in the series with IL-6 and with IL-18 was over 12.5 µg/mL in each case. Moreover, the IL-18 release in the series with IL-18 (C1: 1.0 μg/mL) is recorded as 312 ± 8.2 pg/mL; in the series on IL-18 (C2: 2.5 μg/mL), 321 ± 7.8 pg/mL; in the series on IL-18 (C3: 5.0 μg/mL), 318 ± 7.6 pg/mL. The same compound registered an IC50 at 72 h in series [1] of over 100 µg/mL.
`C=C(C)[C@@H]1C/C=C2\C(=O)O[C@@H](C[C@]3(C)CC(=O)[C@@H](CC(=O)C1)O3)[C@@H]2O` [Compound 2, sinuleptolide]: the figures for the IL-6 release with IL-6 (C1: 1.0 μg/mL), in the series with IL-6 (C2: 2.5 μg/mL) and in the series with IL-6 (C3: 5.0 μg/mL) were 12.1 ± 0.9 pg/mL, 7.8 ± 1.4 pg/mL and 8.5 ± 1.3 pg/mL, respectively. In addition, the 50% inhibitory concentration (IC50) in the series with IL-6 was 2.2 µg/mL (≈ 6.31 µM); with IL-18, 2.9 µg/mL (≈ 8.32 µM). The figures for the IL-18 release in the series on IL-18 (C1: 1.0 μg/mL), with IL-18 (C2: 2.5 μg/mL) and with IL-18 (C3: 5.0 μg/mL) were 326 ± 4.9 pg/mL, 187 ± 14 pg/mL and 155 ± 11 pg/mL, respectively. Moreover, the IC50 at 72 h in series [1] is over 100 µg/mL. In addition, the “decrease in the amount of viable cells (living or dividing)” value in the series with BHK-CHIKV-NCT cells is listed as over 80%.
For `C=C(C)[C@@H]1CC(=O)[C@H]2[C@H](C1)[C@@H]1C(=O)O[C@@H]3C[C@@]4(C)O[C@H]2C(=O)[C@@H]4[C@H]13` [Compound 6, ineleganolide], the IL-6 release was found to be 13.2 ± 0.2 pg/mL with IL-6 (C1: 1.0 μg/mL), 12.1 ± 0.9 pg/mL with IL-6 (C2: 2.5 μg/mL) and 11.8 ± 1.2 pg/mL in the series on IL-6 (C3: 5.0 μg/mL). Besides, the half-inhibitory concentration (IC50) in the series on IL-6 and in the series with IL-18 was over 12.5 µg/mL in each case. Further, the IL-18 release with IL-18 (C1: 1.0 μg/mL), in the series on IL-18 (C2: 2.5 μg/mL) and in the series on IL-18 (C3: 5.0 μg/mL) was 312 ± 8.2 pg/mL each time. The half-inhibitory concentration (IC50) at 72 h in series [1] is over 100 µg/mL.

The term IC50 denotes the concentration that inhibits the measured activity by half.
